The values that follow come from PubChem BioAssay (NCI).

Structures are written as SMILES. Several values for one entry are separate records, joined by “and”; a condition that tells them apart may be missing. Equal entries are not always repeated.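 Cultured in 96-well plates, cells were exposed to test compound for 48 hours across five concentrations. GI50 marks 50% less growth. TGI: concentration producing complete growth inhibition.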

Common to all, as to experiment: NCI anticancer screen, dose series, 48 h
Assay [1] has as its system HCC-2998 colon.
Assay [2] relates to HCT-15 colon.
In assay [3] the test system is OVCAR-3 ovarian.
In assay [4] the test system is OVCAR-5 ovarian.
Assay [5] has as its system PC-3 prostate.
Assay [6] has as its system SK-MEL-2 melanoma.
Assay [7] has as its system SK-MEL-28 melanoma.
The test system of assay [8] is SN12C renal.
For assay [9], the system named is TK-10 renal.
Assay [10] concerns U251 CNS.

As for `COc1ccc(C(C#N)NC23CC4CC(CC(C4)C2)C3)cc1` (stereo not given), the TGI in [1], in [2], in assay [3], in [4], in assay [5] and in assay [6] was more than 100 µM each time. In addition, the TGI in [7], in [8], in [9] and in assay [10] was more than 100 µM each time.

In the case of `CC(C)(C)c1cc([N+](=O)[O-])cc([N+](=O)[O-])c1O`, the TGI in [1], in assay [2], in assay [3], in assay [4], in assay [5] and in assay [6] was more than 10 µM each time. Further, the TGI in [7], in assay [8], in assay [9] and in [10] was more than 10 µM in each case.

As to `Cc1cc(N(CC(C)Br)CC(C)Br)ccc1N=Nc1ccccc1C(=O)O` (stereo not given), the TGI amounted to 6.19 µM in [1]; 29 µM in [2]; 47.2 µM in assay [3]; 10.2 µM in assay [4]; 30 µM in assay [5]; 10.2 µM in assay [6]. Further, the TGI stood at 5.43 µM in assay [7], 20 µM in assay [8], 24.4 µM in [9] and 22 µM in assay [10].

As to `CCN(CC)CCCC(CCl)Nc1ccnc2cc(Cl)ccc12` (stereo not given), the GI50 in assay [1] is 11.9 µM; in assay [2], 24.9 µM and 23.9 µM; in assay [3], 10.9 µM and 6.23 µM; in assay [4] it was 11.4 µM and 23.5 µM; in assay [5], 27.2 µM and 34.9 µM; in assay [6] it was 25.4 µM and 35 µM. Also, the GI50 is 18.8 µM and 19 µM in assay [7]; 52.1 µM and 48 µM in [8]; 10.1 µM and 14.1 µM in assay [9]; 23.4 µM and > 50 µM in assay [10]. The TGI in assay [1] was 27.8 µM; in assay [2] it was more than 100 µM; in assay [3], 34.7 µM and 28 µM; in assay [4], 28.6 µM and > 61.3 µM; in assay [5], more than 100 µM; in assay [6], 57.5 µM and > 100 µM. Further, the TGI in [7] was 54.7 µM and > 63 µM; in [8] it was more than 100 µM; in assay [9], 22.2 µM and 29.4 µM; in [10], 69.7 µM and > 100 µM.

On to `COc1ccc2c(c1)C(=O)/C(=C/c1cccc(OCC(=O)c3ccccc3)c1)O2`, for which the GI50 in assay [1] is 1.74 µM; in assay [2], 2.42 µM; in assay [3], 1.83 µM; in assay [4], 4.31 µM; in [5], 4.44 µM; in assay [6], 16.7 µM. The GI50 in assay [7] is 4.76 µM; in [8], 6.15 µM; in [9], 2.45 µM; in assay [10], 7.97 µM. Besides, the TGI in assay [1] amounted to 3.16 µM; in assay [2], 6.83 µM; in [3], 3.36 µM; in assay [4], 14.5 µM; in assay [5], 17.4 µM; in assay [6], 30.5 µM. Further, the TGI in assay [7] is 15.7 µM; in assay [8] it was 25.6 µM; in assay [9], 5.5 µM; in assay [10] it was 20.8 µM.

Regarding `CC/C=C\C[C@H]1CC=C2C(=O)C=C[C@@H]2CC=CCCCC(=O)O[C@@H](CCCCC)CC=C2C(=O)C=C[C@@H]2CC=CCCCC(=O)O[C@@H](CCCCC)CC=C2C(=O)C=C[C@@H]2CC=CCCCC(=O)O[C@@H](CCCCC)CC=C2C(=O)C=C[C@@H]2CC=CCCCC(=O)O1`, the GI50 in assay [1] is 1.86 µM; in [2] it was 2.84 µM; in assay [3], 1.66 µM; in [4], 4.02 µM; in assay [5], 2.38 µM; in assay [6], 2.21 µM. For the same compound, the GI50 in assay [7] is 1.99 µM; in assay [8], 1.99 µM; in assay [9], 3 µM; in assay [10] it was 1.45 µM. Also, the TGI in assay [1] was 4.07 µM; in assay [2] it was more than 7.9 µM; in [3] it was 4.01 µM; in assay [4], more than 7.9 µM; in assay [5], more than 7.9 µM; in assay [6] it was 5.38 µM. Moreover, the TGI in [7] was 6.3 µM; in assay [8], 6.86 µM; in [9] it was more than 7.9 µM; in assay [10], 3.13 µM.

For the compound `Cc1ccc(S(=O)(=O)N=Nc2c(O)[nH]c3cc(O)c(C(=O)O)cc23)cc1`, the TGI in [1], in assay [2], in assay [3], in assay [4], in assay [5] and in assay [6] was more than 100 µM each time. The TGI in [7], in [8], in assay [9] and in assay [10] was more than 100 µM throughout.

In the case of `O=C(O)c1ccc(CN2CCC(CN[C@@H]3C[C@H]3c3ccccc3)CC2)cc1`, the GI50 in assay [1], in assay [2], in assay [3], in assay [4], in [5] and in assay [6] was more than 100 µM throughout. Also, the GI50 in assay [7], in assay [8], in assay [9] and in assay [10] was more than 100 µM each time. In addition, the TGI in assay [1], in assay [2], in [3], in assay [4], in [5] and in [6] was more than 100 µM each time. Besides, the TGI in [7], in [8], in assay [9] and in assay [10] was more than 100 µM each time.

With `O=C1C=CC(=O)C2C1C1(Cl)C(Cl)=C(Cl)C2(Cl)C1(Cl)Cl` (stereo not given), the GI50 in [1] was 6.45 µM; in assay [2] it was 4.11 µM; in [3], 2.03 µM; in [4] it was 12.4 µM; in assay [5], 2.73 µM; in [6], 3.18 µM. Also, the GI50 in [7] is 9.63 µM; in assay [8] it was 6 µM; in assay [9], 8.07 µM; in assay [10] it was 5.76 µM. For the same compound, the TGI in [1] was found to be 20.4 µM; in assay [2], 22.4 µM; in assay [3] it was 5.08 µM; in assay [4] it was 31.1 µM; in assay [5], 20 µM; in [6] it was 8.99 µM. The TGI in assay [7] is 21.8 µM; in [8] it was 25.6 µM; in assay [9] it was 81 µM; in [10], 19.1 µM.
